Reference: article PMC5321753, “Enhanced expression of ADCY1 underlies aberrant neuronal signalling and behaviour in a syndromic autism model” (Nature Communications, 2017)

Key:
[1] = system: WT and Fmr1 KO mice; assay: Audiogenic seizures (AGS) induced by 120 dB sound; type: in vivo, mouse; details: NB001 1 mg kg^-1 IP; for % Clonic/tonic seizure / % Death / % Wild running: 1 h before testing, 120 dB
Procedure: Audiogenic seizures (AGS) were examined with 21- to 24-day-old-mouse (7), as this phenotype is dependent on the age of the mouse and only detected in juvenile Frm1 KO mouse. Mouse was placed in a box (30 cm L × 17 cm W × 12 cm H) with a flat plastic lid. A personal alarm (Streetwise, item # SWPDAL) was taped to the lid of the box and wired to a DC power supply to keep the sound amplitude constant. The mouse was allowed to acclimatize to the box for 5 min, following which 120 dB sound was emitted from the alarm for 2 min. The number of mice undergoing seizure activity within the 2-min period was counted. Audiogenic seizures were classified into different stages: wild running, clonic/tonic seizure and death.
(§1) NB001 was dissolved in water to give a 25 mM stock solution. The stock was diluted in saline and IP injected into mice at 1 mg kg^−1 body weight. In all cases, the drug was administered 1 h before testing. Control mice were treated similarly but injected with saline.
(§2) To inhibit phosphodiesterase (PDE), rolipram was dissolved in 10% kolliphore and IP injected into mice at 0.5 or 0.03 mg kg^−1. The use of the higher dose (that is, 0.5 mg kg^−1) was to ensure sufficient inhibition of PDE[44][45]. […] Rolipram- or vehicle (10% kolliphore)-injected mice were examined with light/dark test and AGS 30 min after drug administration.

[2] = system: ERK1/2; assay: Immunoblot of phosphorylated and total ERK1/2 in hippocampus after i.p. injection; type: in vivo, mouse; details: NB001 1 mg kg^-1 IP
Procedure: (§3) Hippocampal tissues were collected from 3-month-(+/−10 days) old mice. […] The primers used for Adcy1 were […] (forward) and […] (reverse). The protein levels in hippocampal tissues collected from mice were determined by western blot using anti-ADCY1 (Sigma, Cat # SAB4500146-100UG, 1:1,000 dilution), anti-p-ERK1/2 (Cell Signaling, Cat # 9101L, 1:1,000 dilution), anti-pAkt (Cell Signaling, Cat # 9271, 1:1,000 dilution), anti-pS6K1 (Cell Signaling, Cat # 9204L for the detection of phosphorylation at Thr421/Ser424, Cat # 9234S for the detection of phosphorylation at Thr389, 1:1,000 dilution), anti-ERK1/2 (Cell Signaling, Cat # 9102L, 1:1,000 dilution), anti-Akt (Cell Signaling, Cat # 9272S, 1:1,000 dilution), anti-S6K1 (Cell Signaling, Cat # 9202L, 1:1,000 dilution) and anti-β-actin antibody (Sigma, Cat # A5441; 1:5,000 dilution). Following incubations with infrared fluorescence (IRDye)-conjugated secondary antibodies (1:5,000, LI-COR Biosciences, Cat # 926–32211 and 926–68070), signals were detected using the Odyssey system (LI-COR Biosciences). The un-cropped western blots are shown in Supplementary Fig. 10.
as §1

[3] = system: S6K1; assay: Immunoblot of phosphorylated and total S6K1 in hippocampus after i.p. injection; type: in vivo, mouse
Procedure: as §3, §1

[4] = system: WT and Fmr1 KO mice; assay: Marble burying test; type: in vivo, mouse; details: NB001 1 mg kg^-1 IP, 1 h before testing
Procedure: (§4) Repetitive behaviour was determined by the marble burying test as described. 3-month-(+/−10 days) old mouse was placed in a regular mouse cage filled with 7.6 cm-deep bedding for 1 h before the test. The mouse was then briefly removed from the testing box and 15 marbles were evenly arranged in a 5 × 3 pattern on the surface of the bedding. The mouse was reintroduced into the testing box and was allowed to bury marbles for 10 min. At the end of the testing period, the number of marbles that were fully buried, partially buried and left on the surface was counted.
as §1

[5] = system: WT and Fmr1 KO mice; assay: Light/dark test; type: in vivo, mouse
Procedure: (§5) Light/dark test was examined as described in our previous study. Light/dark test was performed using 3-month (+/−10 days) old mouse, which was first placed in the dark half of the chamber (Coulbourn Instruments). After 1 min of habituation, the trap door was opened and the mouse was allowed to move freely between the two chambers for 5 min. The time spent in each chamber and the number of entries into the lit side were recorded.
as §1, §2

[6] = system: WT mice; assay: Behavioural examinations in WT mice (Fig. 5e-h; Table 2); type: in vivo, mouse; details: NB001 1 mg kg^-1 IP, marble burying, light/dark, social interaction, AGS
Procedure: as §4
as §5, with “After 1 min of habituation, the trap door was opened and the mouse was allowed to move freely between the two chambers for 5 min.” left out
Audiogenic seizures (AGS) were examined with 21- to 24-day-old-mouse (7), as this phenotype is dependent on the age of the mouse and only detected in juvenile Frm1 KO mouse. […] The number of mice undergoing seizure activity within the 2-min period was counted. […]
Social interaction was determined by the 3-chamber test as described. […] The entrances were then opened and the activity of the test mouse was recorded. Time spent in each of the chambers and time spent sniffing the stranger mouse enclosure versus the empty enclosure were recorded. […]

[7] = NB001 pharmacokinetic study, plasma and brain levels by LC/MS/MS; type: in vivo, mouse
Procedure: Following IP injection of NB001 (20 mg kg^−1), mice were killed at various time points, and 0.5–0.8 ml of blood was drawn from a cardiac puncture into a 1 ml syringe, which was pre-treated with NaHeparin. The blood was collected into 1.5 ml microfuge tubes coated with NaHeparin and put on ice immediately. Samples were centrifuged at 15,000 r.p.m. for 15 min. Blood plasma was collected from the upper layer, leaving the blood cells in the tube. The plasma was frozen at −80 °C for later analysis. Brains were taken out and weighed immediately. Brains were frozen at −80 °C for later preparation and analysis. The samples were subjected to LC/MS/MS with Turbo-Ionspray Interface used in the positive ion-mode (Pharmacokinetics Core, University of Michigan). Mouse liver microsome stability assay was performed by the Pharmacokinetics Core at University of Michigan.

[8] = system: ADCY1; design: method as in PMID 21228397; details: intact cells; cited from earlier work
[9] = system: neuropathic pain; design: method as in PMID 21228397; details: systemic administration; cited from earlier work
[10] = IP injection, 20 mg kg^-1, mice

Nc1ncnc2c1ncn2CCNCCCCCO [NB001, 5-{[2-(6-amino-9H-purin-9-yl)ethyl]amino}-1-pentanol]
occurrence of AGS versus vehicle (saline)-injected controls ([1]; Fmr1 KO mice): less occurrence
% Clonic/tonic seizure ([1]; Fmr1 KO mice): 5.8%
% Death ([1]; Fmr1 KO mice): 5.8%
% Wild running ([1]; Fmr1 KO mice): 35.2%
% Clonic/tonic seizure ([1]; WT mice): 0%
% Death ([1]; WT mice): 0%
% Wild running ([1]; WT mice): 0%
elevated level of p-ERK1/2 in the hippocampus ([2]; Fmr1 KO mice, 1 h after injection, relative to WT levels): normalized
phosphorylation of ERK1/2 in WT mice ([2]; WT mice, hippocampus): did not cause measurable changes
elevated level of pS6K1 (at Thr421/Ser424) in the hippocampus ([3]; Fmr1 KO mice, NB001 1 mg kg^-1 IP, 1 h after injection, relative to WT levels): normalized
phosphorylation of S6K1 in WT mice ([3]; WT mice, NB001 1 mg kg^-1 IP, hippocampus): did not cause measurable changes
level of pS6K1 at PI3K target site Thr389 ([3]; hippocampus, acute NB001 1 mg kg^-1 IP, 1 h after injection): not affected
marble burying behaviour, NB001-injected Fmr1 KO versus WT mice [4]: comparable
transition between the light and dark chambers, NB001-injected Fmr1 KO versus WT mice ([5]; NB001 1 mg kg^-1 IP, 1 h before testing): comparable
time spent in the lit chamber, difference between groups ([5]; WT and Fmr1 KO mice, vehicle or 1 mg per kg NB001): not significant
behaviour in WT mice [6]: did not cause measurable changes
absorption to plasma [7, 10]: absorbed to the blood stream
distribution to brain [7, 10]: distributed to the brain
blood-brain barrier crossing ([7]; conclusion from plasma/brain levels and ref 40): can cross the blood–brain barrier
inhibition of ADCY1 activity versus other types of adenylyl cyclases [8]: preferentially inhibits ADCY1 activity over other types of adenylyl cyclases
neuropathic pain [9]: attenuates
